Like-named read-outs stand apart in the source and are kept apart here. Marks after values point to notes of the source that are not given here.
Columns and labels:
[1] = test system: domestic cat model of Niemann-Pick C; experiment: Feline model of NPC: neurologic and clinical findings; format: in vivo; design: Front leg Hopping / Rear leg hopping / Vision-Menace: scale not given here; conditions: for Ataxia / Front leg Hopping / Intention tremors / Rear leg hopping / Vision-Menace: NPC-affected cat S222, NB-DNJ treated
Description: A breeding colony for this animal model of NPC is being maintained to study the disease and its potential treatments (Brown et al (1996) J. Inherit Metab. Dis. 19:319-330).
From seven feline NPC carrier litter mates, normal and NPC-affected male and female cats were selected for the study. The affected female and unaffected male began treatment with NB-DNJ at 1200 mg/kg/day. […] During a brief recovery period for these animals, an unrelated normal cat was treated to determine the maximum tolerated dose for NB-DNJ in this species. Based on this dose-ranging work, the NPC-affected and unaffected litter mates were restarted with NB-DNJ at 50 mg/kg/day. Over the following weeks, the administration level was increased to 150 mg/kg/day. […] Except for brief intervals when the treatments were withheld because of transient appetite loss, the NB-DNJ dosages were continued for about three months. On this date, the animals were sacrificed for histologic and lipid analyses.
Cat number: S222; Status: NPC-affected, NB-DNJ-treated; […]; […]. […] […] also was noted to have bilateral luxating patellas at about the same time. […] Over the course of the next 20 weeks, her disease symptoms slowly worsened. However, on several occasions it was noted by the consulting neurologist that her symptoms were less severe than those of S221. […] The following is a tabulation of her neurologic and medical findings:

[2] = format: in vivo; conditions: for Weight: NPC-affected cat S222, NB-DNJ treated, measured within 10 days before neuronal assessment
[3] = test system: GM2 ganglioside; experiment: Immunocytochemistry with anti-GM2 ganglioside antibodies in cat brain; format: in vivo
Excerpt: The following sections highlight the histologic and lipid analysis findings for the study animals. As with humans, there is an increased expression of gangliosides in feline NPC neurons. […] There is a corresponding increase in neuronal ganglioside level and histology changes seen in NPC humans.
Immunocytochemical studies with anti-GM2 ganglioside antibodies were used to probe for ganglioside expression in treated vs. untreated cats in a qualitative manner.

[4] = test system: NPC^−/− mice; experiment: Mouse model of NPC: symptoms and survival; format: in vivo
Excerpt: Colonies of mutant mice expressing the NPC phenotype have been described (Pentchev et al., 1984, Miyawaki et al., 1986; Kitagawa, 1987), and has been validated by a number of criteria as an authentic model of the disease (Akaboshi et al., 1997). NPC mice display clinical signs of the disease around 6-8 weeks of age with mild intention tremor and ataxia. […] Death results by 10-12 weeks.
Breeding pairs of mice heterozygous for the mutation causing NPC were used to produce offspring that are NPC^−/− homozygotes. These animals, along with their normal wildtype littermates, were used in the following NB-DNJ drug study. Where indicated, NB-DNJ was administered daily by mixing with ground mouse chow. Mice were PCR genotyped 2-3 weeks of age to determine their genetic background.
[…] NPC^−/− mice, with ages ranging from 3-7 weeks, were entered into a treatment study. Seven were treated with 1200 mg/kg/day and six were untreated. […] By 10 weeks of age, all six untreated NPC^−/− mice died or were sacrificed according to veterinary animal care requirements. In contrast, 4 of 7 NPC^−/− mice treated with NB-DNJ lived into their twelfth week. […] In this experiment, untreated NPC^−/− mice survived 65±1 days (average ±SE; n=6), while NPC^−/− mice treated with NB-DNJ at 1200 mg/kg/day survived 88±4 days (n=7).

[5] = target: T1, alpha-glucosidase 1 (Homo sapiens, UniProt Q13724); conditions: cited from earlier work
T1 sequence (Q13724 1-837): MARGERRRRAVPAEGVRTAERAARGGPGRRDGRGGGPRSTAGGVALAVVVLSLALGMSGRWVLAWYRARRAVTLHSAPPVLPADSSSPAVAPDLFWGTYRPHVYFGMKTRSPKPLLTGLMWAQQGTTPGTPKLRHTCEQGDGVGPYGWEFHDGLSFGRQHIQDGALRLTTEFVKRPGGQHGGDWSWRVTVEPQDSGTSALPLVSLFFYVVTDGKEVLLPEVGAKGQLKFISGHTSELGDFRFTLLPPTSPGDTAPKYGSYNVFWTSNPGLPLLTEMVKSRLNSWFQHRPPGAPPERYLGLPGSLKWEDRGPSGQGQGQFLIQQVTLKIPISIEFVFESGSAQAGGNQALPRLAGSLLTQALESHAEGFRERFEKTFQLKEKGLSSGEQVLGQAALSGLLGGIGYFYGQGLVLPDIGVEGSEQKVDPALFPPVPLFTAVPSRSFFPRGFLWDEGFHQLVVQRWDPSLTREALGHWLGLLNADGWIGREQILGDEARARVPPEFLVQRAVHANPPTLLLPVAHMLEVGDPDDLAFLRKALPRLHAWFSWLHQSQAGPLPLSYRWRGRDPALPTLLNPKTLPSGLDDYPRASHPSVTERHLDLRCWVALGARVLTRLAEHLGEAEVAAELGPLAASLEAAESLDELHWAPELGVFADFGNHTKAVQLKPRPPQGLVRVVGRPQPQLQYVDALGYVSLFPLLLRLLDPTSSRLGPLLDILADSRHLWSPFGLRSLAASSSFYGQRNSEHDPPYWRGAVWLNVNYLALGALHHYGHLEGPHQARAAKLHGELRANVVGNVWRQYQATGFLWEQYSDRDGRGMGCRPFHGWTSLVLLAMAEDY

[6] = test system: glucosylceramide synthesis; conditions: cells treated with NB-DNJ; cited from earlier work
[7] = patients with Parkinson's disease, stroke and spinal cord injuries; cited from earlier work
[8] = NPC-affected cat S222, 100 mg/kg/day

CCCCN1C[C@H](O)[C@@H](O)[C@H](O)[C@H]1CO [NB-DNJ, N-butyldeoxynojirimycin]
Severity of disease symptoms versus untreated NPC cat S221 ([1]; NPC-affected cat S222, 100 mg/kg/day, noted by consulting neurologist): less severe | Ataxia ([1]; Week 6.5): none | Front leg Hopping ([1]; Week 6.5): 2 | Intention tremors ([1]; Week 6.5): none | Rear leg hopping ([1]; Week 6.5): 2 | Vision-Menace ([1]; Week 6.5): 2 | Ataxia ([1]; Week 12.5): none | Front leg Hopping ([1]; Week 12.5): 2 | Intention tremors ([1]; Week 12.5): mild | Vision-Menace ([1]; Week 12.5): 1 | Rear leg hopping ([1]; Week 12.5, diagnosed with bilateral luxating patellas): 2^† | Ataxia ([1]; Week 16): none | Front leg Hopping ([1]; Week 16): 2 | Intention tremors ([1]; Week 16): mild | Rear leg hopping ([1]; Week 16): 2 | Vision-Menace ([1]; Week 16): 1 | Ataxia ([1]; Week 18.5): none | Front leg Hopping ([1]; Week 18.5): 2 | Intention tremors ([1]; Week 18.5): mild | Rear leg hopping ([1]; Week 18.5): 1.5 | Vision-Menace ([1]; Week 18.5): 1.5 | Ataxia ([1]; Week 20.5): none | Front leg Hopping ([1]; Week 20.5): 2 | Intention tremors ([1]; Week 20.5): mod | Rear leg hopping ([1]; Week 20.5): 2 | Vision-Menace ([1]; Week 20.5): .5 | Ataxia ([1]; Week 22.5): none | Front leg Hopping ([1]; Week 22.5): 1.5 | Intention tremors ([1]; Week 22.5): mild | Rear leg hopping ([1]; Week 22.5): 1.5 | Vision-Menace ([1]; Week 22.5): 1 | Ataxia ([1]; Week 24.5): none | Front leg Hopping ([1]; Week 24.5): 2 | Intention tremors ([1]; Week 24.5): mod | Rear leg hopping ([1]; Week 24.5): 2 | Vision-Menace ([1]; Week 24.5): 1 | Ataxia ([1]; Week 26.5): none | Front leg Hopping ([1]; Week 26.5): 2 | Intention tremors ([1]; Week 26.5): mild | Rear leg hopping ([1]; Week 26.5): 1.5 | Vision-Menace ([1]; Week 26.5): 1 | Ataxia ([1]; Week 29): mod | Front leg Hopping ([1]; Week 29): 2 | Intention tremors ([1]; Week 29): mod | Rear leg hopping ([1]; Week 29): 1 | Vision-Menace ([1]; Week 29): 1 | Ataxia ([1]; Week 30.5): mild | Intention tremors ([1]; Week 30.5): mod | Vision-Menace ([1]; Week 30.5): 1 | Ataxia ([1]; Week 32.5): mod | Front leg Hopping ([1]; Week 32.5): 1 | Intention tremors ([1]; Week 32.5): mod | Rear leg hopping ([1]; Week 32.5): 1 | Vision-Menace ([1]; Week 32.5): 0.5 | Symptoms of neurologic degeneration typical for NPC ([1]; cats, NB-DNJ treatment): qualitatively delays | Fur colour [2, 8]: light-coloured fur effect | Tolerability [2, 8]: reasonably well handled | Appetite ([2]; NPC-affected cat S222, 100 mg/kg/day, relative to normal and NPC-affected cats): significantly reduced | Weight ([2]; Week 6.5): 522 gms | Weight ([2]; Week 12.5): 965 gms | Weight ([2]; Week 16): 1265 gms | Weight ([2]; Week 18.5): 1390 gms | Weight ([2]; Week 20.5): 1453 gms | Weight ([2]; Week 22.5): 1469 gms | Weight ([2]; Week 24.5): 1495 gms | Weight ([2]; Week 26.5): 1525 gms | Weight ([2]; Week 29): 1565 gms | Weight ([2]; Week 30.5): 1590 gms | Weight ([2]; Week 32.5): 1677 gms | Hepatotoxicity ([2]; NPC-affected cat S222, starting dose 1200 mg/kg/day): acutely hepatotoxic | Hepatotoxicity ([2]; cats, 150 mg/kg/day): hepatotoxic | Hepatotoxicity ([2]; cats, 1200 mg/kg/day): acutely hepatotoxic | Appetite and overall responsiveness ([2]; normal cat S161, 100 mg/kg/day): decreased | Hair colour ([2]; normal cat S218, 100 mg/kg/day): markedly more beige | Serum levels of liver enzymes ([2]; normal cat S218, 1200 mg/kg/day): dramatic elevation | Appetite ([2]; normal cat S218, eventual dosage 100 mg/kg/day): significantly less than that of a normal cat | Hepatotoxicity ([2]; normal cat S218, starting dose 1200 mg/kg/day): acutely hepatotoxic | Weight at the end of the treatment period ([2]; normal female cat S218, 100 mg/kg/day, normal female cat expected about 4 kg): about 2.4 kg | GM2 immunoreactivity in granular cell layer of cerebellum ([3]; NPC cat treated with NB-DNJ): largely devoid of GM2 immunoreactivity | GM2 labeling in Purkinje cells ([3]; NPC cat treated with NB-DNJ): qualitatively less GM2 labeling | GM2 labeling in the cerebral cortex ([3]; NPC cat treated with NB-DNJ, compared to untreated NPC cat): qualitatively less severe | Accumulation of glucosylceramide-containing glycolipids (e.g. GM2) ([3]; NPC cats): qualitatively decreases | Symptoms of neurologic degeneration typical for NPC ([4]; NPC mice, 1200 mg/kg/day): qualitatively delaying | Increase in longevity ([4]; NPC mice, 1200 mg/kg/day versus untreated): 26% | Mice displaying symptoms of neurologic effects ([4]; NPC^−/− mice, 1200 mg/kg/day in chow, by 8 weeks of age, untreated 5 out of 6): none | Mice displaying any degree of symptoms ([4]; NPC^−/− mice, 1200 mg/kg/day, by 9 weeks of age, untreated all six): 4 of 7 | Survival (average ±SE) ([4]; NPC^−/− mice, 1200 mg/kg/day, n=7, untreated 65±1 days): 88 ± 4 days | Surviving mice displaying some degree of NPC-induced neural degeneration ([4]; NPC^−/− mice, 1200 mg/kg/day, twelfth week): Three of these four | Mice that lived into their twelfth week ([4]; NPC^−/− mice, 1200 mg/kg/day, all untreated dead by 10 weeks): 4 of 7 | Inhibition of alpha-glucosidase 1 [5]: potent inhibitor | Glucosylceramide levels [6]: markedly reduced

GM1 ganglioside
Neurodegenerative processes [7]: seem to improve
